The record followed here is patent US20210255193A1, “LYSINE REACTIVE PROBES AND USES THEREOF” (The Scripps Research Institute, priority 2017, published 2021).

Assay in all cases: competitive isoTOP-ABPP
Holding throughout (assay type): binding

One assay has as its target T1, DCTN2 Dynactin subunit 2 (Homo sapiens, UniProt Q13561).
T1 construct: isoTOP-ABPP experiments performed in cell lysates (in vitro); endogenous in cells; host or cells: soluble proteome of human cancer cell lines (MDA-MB-231, Ramos, Jurkat)
The method, boiled down: (§1)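 Probe: STP-alkyne, 0.1 mM, 1 h RT, after fragment pretreatment of lysate (esters 50 μM; guanidinylators 100 μM). Tags: light = compound, heavy = DMSO, via CuAAC. Replicates averaged if SD <60% of mean; otherwise lowest ratio used when any R <4.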

For assay [1], the target named is T2, GLUD1 Glutamate dehydrogenase 1, mitochondrial (Homo sapiens, UniProt P00367).
T2 construct: isoTOP-ABPP experiments performed in cell lysates (in vitro); endogenous in cells; host or cells: MDA-MB-231 soluble lysate
T2 sequence (P00367 54-558): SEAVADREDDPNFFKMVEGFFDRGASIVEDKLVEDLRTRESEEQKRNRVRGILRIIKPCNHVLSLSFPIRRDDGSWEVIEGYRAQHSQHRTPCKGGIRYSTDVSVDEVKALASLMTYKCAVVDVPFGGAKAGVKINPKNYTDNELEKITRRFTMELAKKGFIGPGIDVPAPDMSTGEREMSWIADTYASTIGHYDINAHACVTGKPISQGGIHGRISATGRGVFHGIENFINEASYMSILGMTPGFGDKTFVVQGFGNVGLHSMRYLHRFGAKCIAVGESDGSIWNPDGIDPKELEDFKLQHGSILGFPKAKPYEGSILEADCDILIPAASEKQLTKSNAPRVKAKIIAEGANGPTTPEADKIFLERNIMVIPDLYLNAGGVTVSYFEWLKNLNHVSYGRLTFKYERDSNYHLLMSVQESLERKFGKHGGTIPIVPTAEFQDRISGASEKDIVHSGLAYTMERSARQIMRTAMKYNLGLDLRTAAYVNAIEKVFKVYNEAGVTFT
The settings on record: for isoTOP-ABPP ratio, lysine P00367_K480: possible other lysine P00367_K477. The method, boiled down:
as §1

Assay [2] has as its target T3, NPEPPS Puromycin-sensitive aminopeptidase (Homo sapiens, UniProt P55786).
T3 construct: isoTOP-ABPP experiments performed in cell lysates (in vitro); endogenous in cells; host or cells: soluble proteome of human cancer cell lines (MDA-MB-231, Ramos, Jurkat)
The method, boiled down: as §1

Assay [3] deals with T4, PNPO Pyridoxine-5-phosphate oxidase (Homo sapiens, UniProt Q9NVS9).
T4 construct: endogenous in cells; host or cells: MDA-MB-231 (soluble fraction of lysate)
T4 sequence (Q9NVS9 1-261): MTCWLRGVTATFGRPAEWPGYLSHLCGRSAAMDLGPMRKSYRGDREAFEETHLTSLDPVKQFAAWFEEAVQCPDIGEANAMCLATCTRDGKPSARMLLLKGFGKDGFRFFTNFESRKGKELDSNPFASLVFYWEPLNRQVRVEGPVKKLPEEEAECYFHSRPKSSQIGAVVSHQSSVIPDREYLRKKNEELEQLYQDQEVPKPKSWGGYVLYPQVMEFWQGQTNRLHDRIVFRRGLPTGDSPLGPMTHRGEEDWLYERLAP
The method, boiled down: as §1

Another assay addresses T5, STRN3 Striatin-3 (Homo sapiens, UniProt Q13033).
T5 construct: isoTOP-ABPP experiments performed in cell lysates (in vitro); endogenous in cells; host or cells: soluble proteome of human cancer cell lines (MDA-MB-231, Ramos, Jurkat)
T5 sequence (Q13033 1-797): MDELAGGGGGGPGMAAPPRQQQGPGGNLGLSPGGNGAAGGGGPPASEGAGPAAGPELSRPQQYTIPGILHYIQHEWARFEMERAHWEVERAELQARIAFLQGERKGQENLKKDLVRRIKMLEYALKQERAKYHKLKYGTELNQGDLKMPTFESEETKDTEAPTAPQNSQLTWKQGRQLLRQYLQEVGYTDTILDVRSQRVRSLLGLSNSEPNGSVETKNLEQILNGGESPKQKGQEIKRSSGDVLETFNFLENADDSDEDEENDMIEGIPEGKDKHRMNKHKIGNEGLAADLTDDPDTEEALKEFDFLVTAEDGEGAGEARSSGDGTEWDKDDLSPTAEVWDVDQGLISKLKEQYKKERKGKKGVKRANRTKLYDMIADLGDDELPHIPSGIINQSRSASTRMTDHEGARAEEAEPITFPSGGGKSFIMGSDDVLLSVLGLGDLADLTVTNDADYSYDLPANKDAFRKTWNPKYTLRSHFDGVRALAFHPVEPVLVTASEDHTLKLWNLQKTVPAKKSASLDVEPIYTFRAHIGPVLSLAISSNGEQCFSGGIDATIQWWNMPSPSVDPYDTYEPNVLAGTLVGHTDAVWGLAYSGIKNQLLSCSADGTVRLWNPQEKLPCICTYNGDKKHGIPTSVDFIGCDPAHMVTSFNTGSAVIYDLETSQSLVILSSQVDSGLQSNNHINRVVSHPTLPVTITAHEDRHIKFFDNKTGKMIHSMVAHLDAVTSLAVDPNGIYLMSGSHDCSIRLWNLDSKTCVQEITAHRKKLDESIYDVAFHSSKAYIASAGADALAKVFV
The method, boiled down: as §1

T3 sequence (P55786 whole entry): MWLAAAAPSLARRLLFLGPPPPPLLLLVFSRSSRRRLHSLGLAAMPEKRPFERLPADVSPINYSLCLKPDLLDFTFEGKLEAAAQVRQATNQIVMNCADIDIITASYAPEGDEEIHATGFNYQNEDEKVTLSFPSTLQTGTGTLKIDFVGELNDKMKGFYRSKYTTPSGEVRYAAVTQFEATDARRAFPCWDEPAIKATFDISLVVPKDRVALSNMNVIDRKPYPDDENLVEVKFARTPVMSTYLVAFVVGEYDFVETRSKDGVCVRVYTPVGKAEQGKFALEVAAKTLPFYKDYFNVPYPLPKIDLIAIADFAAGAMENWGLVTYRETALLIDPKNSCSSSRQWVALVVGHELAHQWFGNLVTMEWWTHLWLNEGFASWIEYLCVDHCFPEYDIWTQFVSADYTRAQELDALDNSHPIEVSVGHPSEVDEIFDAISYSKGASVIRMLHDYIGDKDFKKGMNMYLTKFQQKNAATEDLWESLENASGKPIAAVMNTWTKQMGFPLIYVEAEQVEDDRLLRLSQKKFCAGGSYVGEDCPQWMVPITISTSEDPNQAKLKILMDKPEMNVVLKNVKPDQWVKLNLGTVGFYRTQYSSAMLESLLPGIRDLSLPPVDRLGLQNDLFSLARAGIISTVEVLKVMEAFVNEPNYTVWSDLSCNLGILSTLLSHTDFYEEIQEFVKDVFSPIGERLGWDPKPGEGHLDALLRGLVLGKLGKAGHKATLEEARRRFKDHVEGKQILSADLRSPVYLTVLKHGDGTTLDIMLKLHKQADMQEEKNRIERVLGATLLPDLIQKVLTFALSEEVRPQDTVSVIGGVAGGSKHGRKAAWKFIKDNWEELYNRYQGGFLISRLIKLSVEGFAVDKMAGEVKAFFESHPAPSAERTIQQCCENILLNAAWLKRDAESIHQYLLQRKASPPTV
T1 sequence (Q13561 whole entry): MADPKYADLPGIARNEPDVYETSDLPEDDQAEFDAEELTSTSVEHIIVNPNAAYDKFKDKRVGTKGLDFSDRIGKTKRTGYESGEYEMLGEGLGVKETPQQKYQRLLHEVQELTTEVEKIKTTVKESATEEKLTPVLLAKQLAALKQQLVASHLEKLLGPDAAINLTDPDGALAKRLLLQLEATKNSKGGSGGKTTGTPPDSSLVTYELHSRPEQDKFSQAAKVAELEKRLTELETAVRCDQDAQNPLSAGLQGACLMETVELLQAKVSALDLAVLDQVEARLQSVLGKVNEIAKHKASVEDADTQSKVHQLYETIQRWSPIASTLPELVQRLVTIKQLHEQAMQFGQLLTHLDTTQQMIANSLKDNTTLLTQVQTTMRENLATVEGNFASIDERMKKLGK

For the molecule `O=C(Oc1ccc([N+](=O)[O-])cc1[N+](=O)[O-])C(c1ccccc1)(c1ccccc1)c1ccccc1` [fragment 42, 2,4-Dinitrophenyl 2,2,2-triphenylacetate], the “isoTOP-ABPP ratio (R) at liganded lysine Q13561_K175” value at DCTN2 Dynactin subunit 2 (50 uM, in vitro, sol, 231) is 0.9. For the same molecule, the “isoTOP-ABPP ratio (R) at liganded lysine P00367_K480” value in assay [1] (50 uM, in vitro, sol, 231) is given as 1.1. For the same molecule, the “isoTOP-ABPP ratio (R) at liganded lysine P55786_K712” value in assay [2] (50 uM, in vitro, sol, 231) is recorded as 0.9. For the same molecule, the “isoTOP-ABPP ratio (R) at liganded lysine Q9NVS9_K100” value in assay [3] (50 uM, in vitro, sol, 231) was found to be 0.9. In addition, at STRN3 Striatin-3 (50 uM, in vitro, sol, 231), the “isoTOP-ABPP ratio (R) at liganded lysine Q13033_K755” value is recorded as 0.9.
Turning to `N#Cc1ccc(C(=O)Oc2ccc([N+](=O)[O-])cc2[N+](=O)[O-])cc1` [fragment 44, 2,4-Dinitrophenyl 4-cyanobenzoate], the “isoTOP-ABPP ratio, lysine Q13561_K175” value on DCTN2 Dynactin subunit 2 (50 uM_231_sol_in vitro) amounted to 0.8. Moreover, the “isoTOP-ABPP ratio, lysine P00367_K480” value in assay [1] (50 uM_231_sol_in vitro) came to 1.2. Besides, the “isoTOP-ABPP ratio, lysine P55786_K712” value in assay [2] (50 uM_231_sol_in vitro) was determined as 1.0. In addition, the “isoTOP-ABPP ratio, lysine Q9NVS9_K100” value in assay [3] (50 uM_231_sol_in vitro) amounted to 0.9. Also, the “isoTOP-ABPP ratio, lysine Q13033_K755” value at STRN3 Striatin-3 (50 uM_231_sol_in vitro) turned out to be 1.0.
On to `O=C(CCc1ccc2c(c1)OCO2)Oc1ccc([N+](=O)[O-])cc1[N+](=O)[O-]` [fragment 45, 2,4-Dinitrophenyl 3-(benzo[d][1,3]dioxol-5-yl)propanoate], for which the “isoTOP-ABPP ratio, lysine Q13561_K175” value at DCTN2 Dynactin subunit 2 (50 uM_231_sol_in vitro) is on record as 1.6. Moreover, the “isoTOP-ABPP ratio, lysine P00367_K480” value in assay [1] (50 uM_231_sol_in vitro) was found to be 2.8. The “isoTOP-ABPP ratio, lysine P55786_K712” value in assay [2] (50 uM_231_sol_in vitro) was determined as 1.3. Also, the “isoTOP-ABPP ratio, lysine Q9NVS9_K100” value in assay [3] (50 uM_231_sol_in vitro) is given as 1.0. In addition, on STRN3 Striatin-3 (50 uM_231_sol_in vitro), the “isoTOP-ABPP ratio, lysine Q13033_K755” value is 1.3.
Turning to `O=C(ON1C(=O)CCC1=O)c1cc(C(F)(F)F)cc(C(F)(F)F)c1` [fragment 46, 3,5-Bis(trifluoromethyl)benzoic acid NHS ester], the “isoTOP-ABPP ratio, lysine Q13561_K175” value at DCTN2 Dynactin subunit 2 (50 uM_231_sol_in vitro) is listed as 0.8. Further, the “isoTOP-ABPP ratio, lysine P00367_K480” value in assay [1] (50 uM_231_sol_in vitro) is recorded as 1.5. Also, in assay [2] (50 uM_231_sol_in vitro), the “isoTOP-ABPP ratio, lysine P55786_K712” value is recorded as 1.3. In addition, in assay [3] (50 uM_231_sol_in vitro), the “isoTOP-ABPP ratio, lysine Q9NVS9_K100” value was determined as 1.0. For the same molecule, the “isoTOP-ABPP ratio, lysine Q13033_K755” value at STRN3 Striatin-3 (50 uM_231_sol_in vitro) is 11.4.
As to `O=C(Oc1c(F)c(F)c(C(F)(F)F)c(F)c1F)c1cc(C(F)(F)F)cc(C(F)(F)F)c1` [fragment 47, 2,3,5,6-Tetrafluoro-4-(trifluoromethyl)phenyl 3,5-bis(trifluoromethyl)benzoate], at DCTN2 Dynactin subunit 2 (50 uM_231_sol_in vitro), the “isoTOP-ABPP ratio, lysine Q13561_K175” value amounted to 1.0. Also, the “isoTOP-ABPP ratio, lysine P00367_K480” value in assay [1] (50 uM_231_sol_in vitro) was 2.0. In assay [2] (50 uM_231_sol_in vitro), the “isoTOP-ABPP ratio, lysine P55786_K712” value worked out at 1.0. The “isoTOP-ABPP ratio, lysine Q9NVS9_K100” value in assay [3] (50 uM_231_sol_in vitro) is reported as 0.9. Also, the “isoTOP-ABPP ratio, lysine Q13033_K755” value at STRN3 Striatin-3 (50 uM_231_sol_in vitro) is on record as 0.9.
Regarding `O=C(Oc1c(F)c(F)cc(F)c1F)c1cc(C(F)(F)F)cc(C(F)(F)F)c1` [fragment 48, 2,3,5,6-Tetrafluorophenyl 3,5-bis(trifluoromethyl)benzoate], at DCTN2 Dynactin subunit 2 (50 uM_231_sol_in vitro), the “isoTOP-ABPP ratio, lysine Q13561_K175” value was determined as 0.7. The “isoTOP-ABPP ratio, lysine P00367_K480” value in assay [1] (50 uM_231_sol_in vitro) turned out to be 1.5. The “isoTOP-ABPP ratio, lysine P55786_K712” value in assay [2] (50 uM_231_sol_in vitro) came to 1.0. In assay [3] (50 uM_231_sol_in vitro), the “isoTOP-ABPP ratio, lysine Q9NVS9_K100” value was found to be 0.9. The “isoTOP-ABPP ratio, lysine Q13033_K755” value on STRN3 Striatin-3 (50 uM_231_sol_in vitro) was found to be 1.2.
Consider `COC(=O)NC(=NC(=O)OCC1c2ccccc2-c2ccccc21)n1cccn1` [fragment 49, N-Methoxycarbonyl-N′-9-fluorenylmethoxycarbonyl-pyrazole-1-carboxamidine], for which, on DCTN2 Dynactin subunit 2 (100 uM_231_sol_in vitro), the “isoTOP-ABPP ratio, lysine Q13561_K175” value is recorded as 1.5. Also, the “isoTOP-ABPP ratio, lysine P00367_K480” value in assay [1] (100 uM_231_sol_in vitro) worked out at 2.0. In assay [2] (100 uM_231_sol_in vitro), the “isoTOP-ABPP ratio, lysine P55786_K712” value worked out at 1.3. In addition, the “isoTOP-ABPP ratio, lysine Q9NVS9_K100” value in assay [3] (100 uM_231_sol_in vitro) is 3.3. The “isoTOP-ABPP ratio, lysine Q13033_K755” value on STRN3 Striatin-3 (100 uM_231_sol_in vitro) is 1.8.
In the case of `CC(C)(C)OC(=O)N=C(NC(=O)OC(C)(C)C)n1cccn1` [fragment 50, reference compound], at DCTN2 Dynactin subunit 2 (100 uM_231_sol_in vitro), the “isoTOP-ABPP ratio, lysine Q13561_K175” value is on record as 1.3. Further, the “isoTOP-ABPP ratio, lysine P00367_K480” value in assay [1] (100 uM_231_sol_in vitro) is 1.3. For the same molecule, the “isoTOP-ABPP ratio, lysine P55786_K712” value in assay [2] (100 uM_231_sol_in vitro) is 1.6. The “isoTOP-ABPP ratio, lysine Q9NVS9_K100” value in assay [3] (100 uM_231_sol_in vitro) was 1.1. In addition, the “isoTOP-ABPP ratio, lysine Q13033_K755” value at STRN3 Striatin-3 (100 uM_231_sol_in vitro) turned out to be 1.2.
